Reference: patent publication US20140194528A1, “USAGE OF SODIUM HOUTTUYFONATE ON INHIBITING IDIOPATHIC PULMONARY FIBROSIS AND BLEOMYCIN INDUCED PULMONARY FIBROSIS” (Hong Kong Baptist University, priority 2013, published 2014)

Assays:
[1] = system: BLM induced pulmonary fibrosis mice model; assay: Bleomycin (BLM) induced pulmonary fibrosis mice model, treatment with SH or PA; type: in vivo, Kunming mice; settings: for lung inflammatory cell infiltration and collagen deposition (H&E staining): 7th, SH both high (90 mg/kg) and low (45 mg/kg) concentrations (FIG. 2); for lung inflammatory cell infiltration and collagen deposition (H&E staining) / lung/body weight ratio: 14th and 28th day; for lung/body weight ratio: SH oral once a day, p<0.05 / p<0.01 vs BLM group (FIG. 1); for hydroxyproline production in lung tissue: 28th day samples, p<0.05 / p<0.01 vs BLM group (FIG. 3C); for deposition of collagens (Sirius Red staining, polarized light): all sample collection time points (7th, 14th, 28th day), SH 90 and 45 mg/kg (FIG. 3A); for collagen I/III ratio: all time points (FIG. 3B)
Experimental: Kunming mice were obtained from Shanghai Experimental Animal Center, Chinese Academy of Sciences. The animals were housed in stainless steel metabolite cages and observed under a 12 hours light-12 hours dark cycle in a well-ventilated room at 23° C±2° C. They were fed with standard pellet food and tap water ad libitum. The study was approved by the Animal Care and Use Committee of Shanghai University of Traditional Chinese Medicine, and was performed in accordance with the National Institute of Health guidelines for the care and handling of animals.
One hundred and twenty mice (male, 8 weeks old, 18-22 g) were randomly divided into the following 5 groups: sham control operation group (Control); BLM treatment group (BLM); prednisone acetate treatment group (BLM+PA); high concentration SH treatment group (BLM+SH High); and low concentration SH treatment group (BLM+SH Low). In the control group, mice received 1 ml/kg 0.9% sterile saline intratracheally under pentobarbital sodium anesthesia. In the BLM group, mice received a single dose of BLM intratracheally (5 mg in 1 ml sterile saline/body weight (kg)). The control and BLM groups received saline (oral, 5 ml/body weight (kg)) once a day for 4 weeks after BLM injection. We selected the doses of SH based on our previous report and small-scale preliminary experiments. We employed two different administration concentrations. SH was administered orally once a day to both the high (90 mg/kg) and low (45 mg/kg) concentration SH groups. On the 7th, 14th or 28th day, the mice were anesthetized with pentobarbital sodium (50 mg/kg) intraperitoneally.
The lungs were immersed in buffered formalin (10%) for 48 h, then embedded in paraffin and sliced (5 μm) and stained with H&E, or Sirius red. Each sample slice was photographed (x200 magnification) under the microscope (Olympus BX51, 167 Japan). All photos were analyzed with the image-Pro Plus 6.3 analyzing software (Media Cybernetics, Bethesda, Md. USA) by computer. Type I and type III collagen accumulation in the interstitial space of the lung was assessed by polarized light microscopy. Type I or type III collagen volume fraction (CVF) was also determined with Image-Pro 6.3 analyzing software.
All values were expressed as mean±standard deviation (SD). Statistical analysis was performed by one-way analysis of variance for multiple comparisons, followed by Student-Newman-Keuls test to evaluate the difference between two groups. Values of p<0.05 were considered statistically significant for all analyses.

[2] = system: mice lung; assay: Small-scale preliminary experiments with two dosages of BLM in mice; type: in vivo
Experimental: Two different dosages of BLM (2.5 mg/kg, 5mg/kg) were given to 10 mice (5 mice for each group) for small-scale preliminary experiments. On the 7th and 14th day, the mice were anesthetized with pentobarbital sodium (50 mg/kg) intraperitoneally. […]. […] Therefore, 5 mg of BLM in 2.5 ml sterile saline/body weight (kg) was used to generate BLM induced pulmonary fibrosis mice model. In the BLM group, mice received a single dose of BLM. After the instillation of saline or BLM, the lung/body weight ratio were obtained on the 7th, 14th, and 28th day. […] Both PA and SH reduced the lung/body weight ratio on the 14th and 28th day in BLM mice (*p<0.05, **p<0.01). Meanwhile, there was no significant difference in body weight among all groups.

Row | Compound | lung inflammatory cell infiltration and collagen deposition (H&E staining) ([1]; BLM mice) | lung/body weight ratio ([1]; BLM mice) | hydroxyproline production in lung tissue ([1]; BLM mice) | deposition of collagens (Sirius Red staining, polarized light) ([1]; BLM mice) | collagen I/III ratio ([1]; BLM+PH group) | cytokine (IL-1β, IL-6 and TNF-α) production in lung tissues ([1]; BLM mice) | body weight ([1]; BLM mice, higher dose of SH) | collagen I/III ratio ([1]; BLM+SH High (90 mg/kg)) | collagen I/III ratio ([1]; BLM+SH Low (45 mg/kg)) | pathological change of lung ([2]; BLM 2.5 mg/kg, 7th and 14th day (data not shown)) | death ([2]; BLM 5 mg/kg) | lung tissue histological examination ([2]; BLM 5 mg/kg, 7th and 14th day)
1 | CC(=O)OCC(=O)[C@@]1(O)CC[C@H]2[C@@H]3CCC4=CC(=O)C=C[C@]4(C)[C@H]3C(=O)C[C@@]21C [PA, prednisone acetate] | reduced | reduced | suppressed | reduced | low collagen I/III ratios | – | – | – | – | – | – | –
2 | CCCCCCCCCC(=O)CC(O)S(=O)(=O)O (stereo not shown) [SH, Sodium Houttuyfonate] | reduced | reduced | suppressed | reduced | – | inhibit | without adversely affecting the body weight | low collagen I/III ratios | low collagen I/III ratios | – | – | –
3 | Bleomycin [BLM] | – | – | – | – | – | – | – | – | – | not significant | no death | showed the fibrotic morphology
